From the CheMixHub ionic liquid set

Test: xn = mol fraction of the nth substance listed

CC(C)[C@H](N)C(=O)O + CCCCCCCCCCCCCCCC[n+]1ccccc1.O=C([O-])C(O)c1ccccc1 + O
Details | electrical conductivity [S/m]
313.15 K, 101 kPa, x2 = 0, x1 = 0.001799 | 0.0016

O=C1OCCO1 + CC[n+]1ccn(C)c1.O=S(=O)([N-]S(=O)(=O)C(F)(F)F)C(F)(F)F
100 kPa
Details | electrical conductivity [S/m] | viscosity [mPa·s]
293.15 K, x1 = 0.8163 | – | 5
293.15 K, x1 = 0.98 | 0.62 | –
303.15 K, x1 = 0.5263 | – | 11.5
303.15 K, x1 = 0.7476 | – | 6.1
313.15 K, x1 = 0.95 | 1.42 | –
333.15 K, x1 = 0.8163 | – | 2.4
333.15 K, x1 = 0.95 | 1.84 | –
343.15 K, x1 = 0.5263 | – | 4.6
343.15 K, x1 = 1 | – | 1.16
353.15 K, x1 = 0.66 | 4.47 | –
353.15 K, x1 = 0.82 | 4.06 | –
353.15 K, x1 = 0.9467 | – | 1.33
353.15 K, x1 = 0.98 | 1.37 | –
363.15 K, x1 = 0.8163 | – | 1.56
373.15 K, x1 = 0.5263 | – | 3
373.15 K, x1 = 1 | – | 0.85
383.15 K, x1 = 0.7476 | – | 1.63
393.15 K, x1 = 0.7476 | – | 1.49
393.15 K, x1 = 0.9467 | – | 0.91

c1ccncc1 + CCCC[n+]1ccn(C)c1.F[B-](F)(F)F
298.15 K, 101 kPa
Details | electrical conductivity [S/m] | viscosity [mPa·s]
x1 = 0.1059 | 0.264 | 82
x1 = 0.2 | 0.347 | 58
x1 = 0.3028 | 0.456 | 39.2
x1 = 0.3969 | 0.601 | 26.4
x1 = 0.5033 | 0.792 | 16.4
x1 = 0.6063 | 1.01 | 9.9
x1 = 0.6873 | 1.17 | 6.39
x1 = 0.807 | 1.3 | 3.2

CCC[NH3+].O=[N+]([O-])[O-] + CC[NH3+].O=[N+]([O-])[O-]
101 kPa, frequency 0.00293 MHz, x2 = 0.5
Details | electrical conductivity [S/m]
293.15 K | 1.2
303.15 K | 1.67
318.15 K | 2.53

101 kPa, x2 = 0.5
Details | viscosity [mPa·s]
293.15 K | 64.5
303.15 K | 44.1
318.15 K | 27.1
353.15 K | 11.5

c1ccncc1 + CCCCCCCC[n+]1ccc2ccccc2c1.O=S(=O)([N-]S(=O)(=O)C(F)(F)F)C(F)(F)F
Details | viscosity [mPa·s]
338.15 K, 101 kPa, x1 = 1 | 0.54

C[C@@H](O)[C@H](N)C(=O)O + CCCC[n+]1ccn(C)c1.[Br-] + O
viscosity [mPa·s], 101.3 kPa
Details | x1 = 0.0003603, x2 = 0 | x1 = 0.0007221, x2 = 0 | x1 = 0.001078, x2 = 0 | x1 = 0.001438, x2 = 0 | x1 = 0.001779, x2 = 0 | x1 = 0.002158, x2 = 0 | x1 = 0.002516, x2 = 0
293.15 K | 1.009 | 1.016 | 1.023 | 1.03 | 1.037 | 1.044 | 1.051
298.15 K | 0.897 | 0.904 | 0.911 | 0.918 | 0.925 | 0.933 | 0.94
303.15 K | 0.804 | 0.811 | 0.818 | 0.825 | 0.833 | 0.84 | 0.847
308.15 K | 0.727 | 0.734 | 0.741 | 0.748 | 0.755 | 0.763 | 0.77
313.15 K | 0.661 | 0.668 | 0.675 | 0.682 | 0.689 | 0.697 | 0.704

COP(=O)([O-])OC.Cn1cc[n+](C)c1 + CCCO
101 kPa
Details | viscosity [mPa·s]
293.15 K, x2 = 0.3018 | 116.9
298.15 K, x2 = 0 | 291
303.15 K, x2 = 0.1993 | 115.9
303.15 K, x2 = 0.5002 | 34.18
303.15 K, x2 = 0.5996 | 21.48
308.15 K, x2 = 0.1993 | 90.1
313.15 K, x2 = 0.5996 | 15.82
318.15 K, x2 = 0.098 | 74.8
318.15 K, x2 = 0.4 | 30.15
318.15 K, x2 = 0.5002 | 20.5
323.15 K, x2 = 0.3018 | 33.41
323.15 K, x2 = 0.5996 | 12.11
323.15 K, x2 = 0.799 | 4.88

CC(C)[C@H](N)C(=O)O + CCCCCCCCCCCCCC[n+]1ccccc1.O=C([O-])C(O)c1ccccc1 + O
Details | electrical conductivity [S/m]
313.15 K, 101 kPa, x2 = 0, x1 = 0.001799 | 0.00161

CCC[NH3+].O=[N+]([O-])[O-] + CCCC[NH3+].O=[N+]([O-])[O-]
101 kPa, frequency 0.00293 MHz, x1 = 0.5
Details | electrical conductivity [S/m]
293.15 K | 0.496
313.15 K | 1.02
323.15 K | 1.36

101 kPa, x1 = 0.5
Details | viscosity [mPa·s]
293.15 K | 100.4
313.15 K | 45.4
323.15 K | 32.6
328.15 K | 28.1
343.15 K | 18.8

CC[n+]1ccn(C)c1.O=C([O-])C(F)(F)F + OCCN(CCO)CCO
100 kPa
Details | electrical conductivity, 298.15 K [S/m] | electrical conductivity, 313.15 K [S/m] | viscosity, 293.15 K [mPa·s] | viscosity, 298.15 K [mPa·s] | viscosity, 303.15 K [mPa·s] | viscosity, 313.15 K [mPa·s]
x1 = 0.006 | 0.00085 | 0.0024 | 878 | 581 | 395 | 197.6
x1 = 0.007 | 0.00084 | 0.00237 | 871 | 576 | 392 | 196.1
x2 = 0.393 | 0.423 | 0.76 | 76.3 | 60 | 47.9 | 32
x2 = 0.501 | 0.287 | 0.54 | 98.1 | 75.4 | 59 | 38.1
x2 = 0.6 | 0.182 | 0.37 | 135.1 | 101 | 77 | 47.7
x2 = 0.692 | 0.109 | 0.237 | 190.6 | 139 | 103.5 | 61.2
x2 = 0.778 | 0.061 | 0.143 | 279.5 | 198.3 | 143.8 | 81.2
x2 = 0.857 | 0.0281 | 0.07 | 413 | 284.7 | 201.3 | 108.7
x2 = 0.931 | 0.0095 | 0.0268 | 621 | 419 | 289.4 | 149.9
x2 = 0.966 | 0.00397 | 0.0113 | 751 | 501 | 344 | 174.6
x2 = 0.98 | 0.0025 | 0.007 | 775 | 518 | 354 | 179.3
